The text below walks through data of ChEMBL document CHEMBL3632532, “Beyond the affinity for protein kinase C: exploring 2-phenyl-3-hydroxypropyl pivalate analogues as C1 domain-targeting ligands” (Medchemcomm, 2015).

Usually inhibition stands for the drop in the measured response relative to a control, in per cent. What is called IC50 is the concentration at which inhibition is half-maximal.

Molecules are shown by their SMILES.

Experiment [1] has as its target T1, Protein kinase C alpha type (Homo sapiens, UniProt P17252). Put plainly: Displacement of [3H]PDBu from recombinant human PKCalpha C1 domain expressed in baculovirus infected insect Sf9 cells assessed as residual radiolabeled binding at 100 uM after 10 mins by liquid scintillation counting analysis relative to control. In general terms: Displacement assays read how much labelled ligand stays bound in the presence of the test substance.

For experiment [2], the target named is T2, Protein kinase C delta type (Homo sapiens, UniProt Q05655). Put plainly: Displacement of [3H]PDBu from recombinant human PKCdelta C1 domain expressed in baculovirus infected insect Sf9 cells assessed as residual radiolabeled binding at 100 uM after 10 mins by liquid scintillation counting analysis relative to control.
Target sequence in this assay (Q05655 whole entry, looked up, the tested form may be a part): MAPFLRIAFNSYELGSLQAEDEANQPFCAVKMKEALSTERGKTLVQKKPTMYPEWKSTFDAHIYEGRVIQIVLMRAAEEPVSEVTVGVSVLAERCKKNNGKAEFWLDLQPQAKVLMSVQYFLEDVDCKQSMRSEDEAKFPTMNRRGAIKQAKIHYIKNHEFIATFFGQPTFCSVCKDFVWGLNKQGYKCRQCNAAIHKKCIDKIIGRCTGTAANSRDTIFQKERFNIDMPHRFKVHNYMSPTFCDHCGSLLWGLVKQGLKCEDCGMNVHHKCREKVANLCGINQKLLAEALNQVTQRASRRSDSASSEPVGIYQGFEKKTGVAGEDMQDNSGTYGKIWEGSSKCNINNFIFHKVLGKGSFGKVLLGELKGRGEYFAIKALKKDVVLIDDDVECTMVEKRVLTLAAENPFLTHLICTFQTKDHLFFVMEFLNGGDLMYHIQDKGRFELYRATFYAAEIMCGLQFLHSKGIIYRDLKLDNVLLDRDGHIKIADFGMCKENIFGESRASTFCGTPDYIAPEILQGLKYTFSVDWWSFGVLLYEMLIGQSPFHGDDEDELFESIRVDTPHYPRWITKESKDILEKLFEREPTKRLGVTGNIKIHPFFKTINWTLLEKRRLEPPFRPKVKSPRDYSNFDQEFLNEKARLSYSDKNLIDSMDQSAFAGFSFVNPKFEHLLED
Experiment [3] addresses T1, Protein kinase C alpha type. The experiment is described as follows: Displacement of [3H]PDBu from recombinant human PKCalpha C1 domain expressed in baculovirus infected insect Sf9 cells after 10 mins by liquid scintillation counting analysis.
The target of experiment [4] is T2, Protein kinase C delta type. The experiment is described as follows: Displacement of [3H]PDBu from recombinant human PKCdelta C1 domain expressed in baculovirus infected insect Sf9 cells after 10 mins by liquid scintillation counting analysis.
Experiment [5] has as its target T1, Protein kinase C alpha type. The experiment is described as follows: Displacement of [3H]PDBu from recombinant human PKCalpha C1 domain expressed in baculovirus infected insect Sf9 cells at 100 uM after 10 mins by liquid scintillation counting analysis relative to control.
The target of experiment [6] is T2, Protein kinase C delta type. The experiment is described as follows: Displacement of [3H]PDBu from recombinant human PKCdelta C1 domain expressed in baculovirus infected insect Sf9 cells at 100 uM after 10 mins by liquid scintillation counting analysis relative to control.
Target sequence in this assay (Q05655 whole entry, looked up, the tested form may be a part): as the sequence (Q05655 whole entry, looked up, the tested form may be a part) above

As to `O=C(CC(CO)c1ccc(-c2ccccc2)cc1)OCc1ccccc1` (stereo not drawn), the Activity in experiment [1] is 64.4%. Further, the Residual [3H]PDBu binding in experiment [2] stood at 56.7%. For the same compound, the inhibition entry in experiment [3] and in experiment [4] was “Dose-dependent effect” in each case.

On to `O=C(Cc1ccccc1)OCC(CO)c1ccc(OCc2ccccc2)cc1` (single isomer, unassigned), for which the inhibition in experiment [5] and in experiment [6] was 27.3% each time.

For `CC(C)(C)C(=O)OCC(CO)c1ccc(OCc2ccccc2)cc1` (racemic) [listing 1 of 2 here], the Activity in experiment [1] is 41.6%. In addition, the Residual [3H]PDBu binding in experiment [2] came out at 29.3%.

As to `O=C(Cc1ccccc1)OCC(CO)c1ccc(OCc2ccccc2)cc1` (racemic) [listing 1 of 2 here], the Activity in experiment [1] stood at 51.3%. The Residual [3H]PDBu binding in experiment [2] stood at 34.8%. The inhibition result in experiment [3] was “Dose-dependent effect”.

In the case of `CCN(CC)C(=O)CC(CO)c1ccc(-c2ccccc2)cc1` (stereo not drawn), the Activity in experiment [1] was found to be 84.4%.

Turning to `CN(Cc1ccccc1)C(=O)CC(CO)c1ccc(-c2ccccc2)cc1` (stereo not drawn), the Activity in experiment [1] is 76.1%.

`O=C(Cc1ccccc1)OCC(CO)c1ccc(OCc2ccccc2)cc1` (single isomer, unassigned; (-)): the inhibition in experiment [5] and in experiment [6] was 26.3% each time.

With `O=C(CC(CO)c1ccc(-c2ccccc2)cc1)N1CCOCC1` (stereo not drawn), the Activity in experiment [1] was determined as 86.6%.

Regarding `CCN(CC)C(=O)CC(CO)c1ccc(OCc2ccccc2)cc1` (stereo not drawn), in experiment [1], the Activity came to 100%.

Consider `CC(C)(C)C(=O)OCC(CO)c1ccc(OCc2ccccc2)cc1` (single isomer, unassigned), for which the inhibition in experiment [5] and in experiment [6] was 36.3% in each case.

`CC(C)(C)C(=O)OCC(CO)c1ccc(OCc2ccccc2)cc1` (single isomer, unassigned; (+)): the inhibition in experiment [5] and in experiment [6] was 34.6% throughout.

In the case of `O=C(Cc1ccccc1)OCC(CO)c1ccc(OCc2ccccc2)cc1` (racemic) [listing 2 of 2 here], the results for the 50% inhibitory concentration (IC50) in experiment [3] and in experiment [4] were 73.9 µM and 39.9 µM, respectively.

In the case of `CCN(CC)C(=O)CC(CO)c1cccc(OCc2ccccc2)c1` (stereo not drawn), the Activity in experiment [1] amounted to 90%.

As to `O=C(CC(CO)c1cccc(OCc2ccccc2)c1)N1CCOCC1` (stereo not drawn), the Activity in experiment [1] was 99.7%.

Turning to `O=C(CC(CO)c1cccc(OCc2ccccc2)c1)OCc1ccccc1` (stereo not drawn), the Activity in experiment [1] worked out at 67.4%. In experiment [2], the Residual [3H]PDBu binding amounted to 52.5%. Further, the inhibition entry in experiment [3] and in experiment [4] was “Dose-dependent effect” in each case.

Take `O=C(CC(CO)c1ccc(OCc2ccccc2)cc1)N1CCOCC1` (stereo not drawn): the Activity in experiment [1] turned out to be 107%.

On to `CC(C)(C)C(=O)OCC(CO)c1ccc(OCc2ccccc2)cc1` (racemic) [listing 2 of 2 here], for which the IC50 turned out to be 37.5 µM in experiment [3] and 33.2 µM in experiment [4].

For `CN(Cc1ccccc1)C(=O)CC(CO)c1ccc(OCc2ccccc2)cc1` (stereo not drawn), in experiment [1], the Activity is 80.6%.

In the case of `O=C(CC(CO)c1ccc(OCc2ccccc2)cc1)OCc1ccccc1` (stereo not drawn), the Activity in experiment [1] came to 73.9%. Also, the Residual [3H]PDBu binding in experiment [2] was 61.6%. For the same compound, the inhibition entry in experiment [3] and in experiment [4] was “Dose-dependent effect” each time.

`CN(Cc1ccccc1)C(=O)CC(CO)c1cccc(OCc2ccccc2)c1` (stereo not drawn): in experiment [1], the Activity stood at 72.4%.
